3 compounds from article PMC10011747, “Targeting androgen receptor and the variants by an orally bioavailable Proteolysis Targeting Chimeras compound in castration resistant prostate cancer” (eBioMedicine, 2023) can be followed below.

Like-named read-outs stand apart in the source and are kept apart here.

For experiment [1], the system named is full-length AR. In words: AR degradation by western blot in prostate cancer cell lines. The experiment is classed as cell-based, human. As to conditions: for sustainability of AR and AR-V(ΔLBD) degradation after drug washout: 10 μM for 24 h then washout, LNCaP, CWR22Rv1, VCaP; for AR degradation: CWR22Rv1 cells (Table S1); for DC50: 24 h treatment; for AR Dmax CWR22Rv1 / AR Dmax VCaP: maximum degradation at 20 μM. On the procedure: (§1) To obtain total lysates, cells were lysed in RIPA buffer (50 mM Tris–HCl pH 8.0, 150 mM NaCl, 1% NP-40, 0.5% Na-deoxycholate, 0.5% SDS plus protease inhibitors). The lysates were resolved by SDS-polyacrylamide gel electrophoresis, and the protein expression was analyzed by western blotting using primary antibodies against AR (Millipore Cat# 06-680, RRID:AB_310214), AR-V7 (RevMAb Biosciences Cat# 31-1109-00, RRID:AB_2716436), GAPDH (Cell Signaling Technology Cat# 2118, RRID:AB_561053) and Actin (Sigma–Aldrich Cat# A5441, RRID:AB_476744). pLenti4/TO/Flag-AR or pLenti4/TO/Flag-TC-AR plasmid was co-transfected with HA-ubiquitin plasmid into 293T cells. 24 h after transfection, the cells were treated with 10 μM of the PROTAC compounds for 16 h, followed by 4-h treatment of 5 μM MG132. The cells were lysed with lysis buffer (50 mM Tris–HCl pH7.5, 150 mM NaCl, 0. 5% Triton X-100, 10% glycerol, 1 mM EDTA plus protease inhibitors) containing 1 ng/mL of N-ethylmaleimide, followed by immunoprecipitation with anti-Flag M2 (Sigma–Aldrich Cat# F3165, RRID:AB_259529) antibody. The ubiquitinated AR was then detected by western blotting using anti-HA (Sigma–Aldrich Cat# H3663, RRID:AB_262051) antibody.
(§2) Fig. 1 PROTAC-based AR degraders ITRI-90, ITRI-125 and ITRI-126 reduce AR and AR-V7 proteins in prostate cancer cell lines. (a) Chemical structure of the PROTAC AR degraders. (b) Representative western blots of AR protein levels in LNCaP, CWR22Rv1 and VCaP cells treated with the PROTAC degraders for 24 h. AR was detected by N-terminal antibody which also detects C-terminal truncated AR-V(ΔLBD) in CWR22Rv1 cells. AR-V7 specific antibody was used for AR-V7 detection. 4%–12% gradient gel was used to separate different species of AR-V(ΔLBD) near 75 kDa in CWR22Rv1 cell lysates. DC50 indicating the concentration required to achieve 50% degradation, was calculated based on normalized full-length AR and AR-V7 band intensity. Dmax is the maximum degradation achieved at 20 μM compound treatment. TEXT PRINTED IN THE PICTURE: (a) ITRI-90: AR DC50 (μM) LNCaP: 2.12 ± 0.93; AR DC50 (μM) CWR22Rv1: 5.73 ± 2.28; AR DC50 (μM) VCaP: 8.67 ± 4.87; AR-V7 DC50 (μM) CWR22Rv1: 4.72 ± 2.52; AR-V7 DC50 (μM) VCaP: 0.29 ± 0.15; AR Dmax (%) LNCaP: 88; AR Dmax (%) CWR22Rv1: 98; AR Dmax (%) VCaP: 90; AR-V7 Dmax (%) CWR22Rv1: 100; AR-V7 Dmax (%) VCaP: 63 | (a) ITRI-125: AR DC50 (μM) LNCaP: 6.10 ± 4.43; AR DC50 (μM) CWR22Rv1: 6.64 ± 1.87; AR DC50 (μM) VCaP: 9.05 ± 3.75; AR-V7 DC50 (μM) CWR22Rv1: 1.89 ± 1.06; AR-V7 DC50 (μM) VCaP: 0.52 ± 0.37; AR Dmax (%) LNCaP: 71; AR Dmax (%) CWR22Rv1: 96; AR Dmax (%) VCaP: 85; AR-V7 Dmax (%) CWR22Rv1: 99; AR-V7 Dmax (%) VCaP: 67 | (a) ITRI-126: AR DC50 (μM) LNCaP: 3.41 ± 3.13; AR DC50 (μM) CWR22Rv1: 0.11 ± 0.02; AR DC50 (μM) VCaP: 0.851 ± 0.43; AR-V7 DC50 (μM) CWR22Rv1: 0.011 ± 0.003; AR-V7 DC50 (μM) VCaP: 0.43 ± 0.19; AR Dmax (%) LNCaP: 99; AR Dmax (%) CWR22Rv1: 74; AR Dmax (%) VCaP: 94; AR-V7 Dmax (%) CWR22Rv1: 91; AR-V7 Dmax (%) VCaP: 82
For orientation: In western blotting, separated proteins are transferred to a membrane and probed.

For experiment [2], the target named is T1, full-length AR (Homo sapiens, UniProt P10275, T878A).
T1 construct: calculated based on normalized full-length AR and AR-V7 band intensity; endogenous in cells; host or cells: LNCaP, CWR22Rv1, VCaP
T1 sequence (P10275 1-920 T878A): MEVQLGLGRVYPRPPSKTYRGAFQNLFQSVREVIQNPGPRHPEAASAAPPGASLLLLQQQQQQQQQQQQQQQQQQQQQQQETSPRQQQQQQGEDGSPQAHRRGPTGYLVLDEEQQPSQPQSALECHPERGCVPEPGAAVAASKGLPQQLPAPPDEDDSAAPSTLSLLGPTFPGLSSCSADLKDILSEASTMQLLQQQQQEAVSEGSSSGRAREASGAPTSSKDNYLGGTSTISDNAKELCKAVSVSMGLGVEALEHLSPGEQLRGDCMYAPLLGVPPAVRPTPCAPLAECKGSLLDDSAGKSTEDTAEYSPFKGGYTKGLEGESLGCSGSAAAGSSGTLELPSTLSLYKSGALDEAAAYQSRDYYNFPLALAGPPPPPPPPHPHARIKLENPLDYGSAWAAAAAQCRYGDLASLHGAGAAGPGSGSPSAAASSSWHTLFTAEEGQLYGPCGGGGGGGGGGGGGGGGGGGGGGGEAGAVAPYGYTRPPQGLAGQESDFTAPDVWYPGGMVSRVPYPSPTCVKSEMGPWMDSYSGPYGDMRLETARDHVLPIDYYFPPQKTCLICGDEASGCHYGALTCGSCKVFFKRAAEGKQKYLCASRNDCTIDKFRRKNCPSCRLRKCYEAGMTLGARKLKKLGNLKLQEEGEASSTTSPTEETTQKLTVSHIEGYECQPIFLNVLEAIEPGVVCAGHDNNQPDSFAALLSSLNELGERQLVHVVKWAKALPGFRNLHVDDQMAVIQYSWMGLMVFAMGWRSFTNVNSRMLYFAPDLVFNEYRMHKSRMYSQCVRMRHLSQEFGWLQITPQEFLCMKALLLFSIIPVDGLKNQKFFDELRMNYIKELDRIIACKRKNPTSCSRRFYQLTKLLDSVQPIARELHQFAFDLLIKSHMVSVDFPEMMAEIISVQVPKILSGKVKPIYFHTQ
Described as above. As to conditions: LNCaP cells; for DC50: 24 h treatment; for Dmax at 20 µM: maximum degradation at 20 μM. In kind it is cell-based. On the procedure:
as §1, §2

The mark [3] stands for this setting: CWR22Rv1 cells, read-out: AR DC50 CWR22Rv1.
Setting [4] is: VCaP cells, read-out: AR DC50 VCaP.

On to `Cc1ncsc1-c1ccc(CNC(=O)[C@@H]2C[C@H](O)CN2C(=O)[C@@H](NC(=O)COCCCCOc2ccc(C3CCN(C4=Nn5c(nnc5C(F)(F)F)CC4)CC3)cc2)C(C)(C)C)cc1` [ITRI-90, (2S,4S)-1-((S)-3,3-dimethyl-2-(2-(4-(4-(1-(3-(trifluoromethyl)-7,8-dihydro-[1,2,4]triazolo[4,3-b]pyridazin-6-yl)piperidin-4-yl)phenoxy)butoxy)acetamido)butanoyl)-4-hydroxy-N-(4-(4-methylthiazol-5-yl)benzyl)pyrrolidine-2-carboxamide], for which, in the experiment with full-length AR [1], the “sustainability of AR and AR-V(ΔLBD) degradation after drug washout” value is “sustain low protein levels up to 24 h after drug washout”; the AR degradation was determined as 98.28%. Moreover, in the experiment with full-length AR [1] (setting [3]), the DC50 (usually the concentration at which degradation of the target reaches its halfway point) turned out to be 5.73 ± 2.28 µM. Further, in the experiment with full-length AR [1] (CWR22Rv1 cells), the “AR Dmax CWR22Rv1” value is 98%. Besides, in the experiment on full-length AR [1] (setting [4]), the DC50 was found to be 8.67 ± 4.87 µM. Besides, the “AR Dmax VCaP” value with full-length AR [1] (VCaP cells) is on record as 90%. Besides, at full-length AR [2], the 50% degradation concentration (DC50) was found to be 2.12 ± 0.93 µM and the Dmax (usually the largest share of the target that was removed) at 20 µM worked out at 88%.

Turning to `Cc1ncsc1-c1ccc(CNC(=O)[C@@H]2C[C@H](O)CN2C(=O)[C@@H](NC(=O)COCCCCCCOc2ccc(C3CCN(C4=Nn5c(nnc5C(F)(F)F)CC4)CC3)cc2)C(C)(C)C)cc1` [ITRI-125, (2S,4S)-1-((S)-3,3-dimethyl-2-(2-(6-(4-(1-(3-(trifluoromethyl)-7,8-dihydro-[1,2,4]triazolo[4,3-b]pyridazin-6-yl)piperidin-4-yl)phenoxy)hexyloxy)acetamido)butanoyl)-4-hydroxy-N-(4-(4-methylthiazol-5-yl)benzyl)pyrrolidine-2-carboxamide], the “sustainability of AR and AR-V(ΔLBD) degradation after drug washout” value in the experiment with full-length AR [1] is “lost the degrading effects on both full-length and truncated AR within 8 h post drug removal”. In the experiment with full-length AR [1], the AR degradation is on record as 92.53%. In addition, the DC50 in the experiment with full-length AR [1] (setting [3]) worked out at 6.64 ± 1.87 µM; in the experiment with full-length AR [1] (setting [4]), 9.05 ± 3.75 µM; on full-length AR [2] it was 6.1 ± 4.43 µM. Further, the “AR Dmax CWR22Rv1” value in the experiment with full-length AR [1] (CWR22Rv1 cells) turned out to be 96%. Further, in the experiment with full-length AR [1] (VCaP cells), the “AR Dmax VCaP” value is recorded as 85%. The Dmax at 20 µM at full-length AR [2] was determined as 71%.

As to `O=C1CCC(N2Cc3c(NC(=O)COCCCCOc4ccc(C5CCN(C6=Nn7c(nnc7C(F)(F)F)CC6)CC5)cc4)cccc3C2=O)C(=O)N1` (centres unmarked) [ITRI-126, N-(2-(2,6-dioxopiperidin-3-yl)-1-oxoisoindolin-4-yl)-2-(4-(4-(1-(3-(trifluoromethyl)-7,8-dihydro-[1,2,4]triazolo[4,3-b]pyridazin-6-yl)piperidin-4-yl)phenoxy)butoxy)acetamide], the “sustainability of AR and AR-V(ΔLBD) degradation after drug washout” value with full-length AR [1] is on record as “sustain low protein levels up to 24 h after drug washout”. The values for the DC50 in the experiment on full-length AR [1] (setting [3]), in the experiment on full-length AR [1] (setting [4]) and at full-length AR [2] were 0.11 ± 0.02 µM, 0.851 ± 0.43 µM and 3.41 ± 3.13 µM, respectively. For the same compound, the “AR Dmax CWR22Rv1” value with full-length AR [1] (CWR22Rv1 cells) is on record as 74%. In addition, the “AR Dmax VCaP” value in the experiment on full-length AR [1] (VCaP cells) is listed as 94%. Moreover, on full-length AR [2], the Dmax at 20 µM was determined as 99%.
